From patent publication US9611249B2, “1H-indazole-3-carboxamide compounds as glycogen synthase kinase 3 beta inhibitors” (AZIENDE CHIMICHE RIUNITE ANGELINI FRANCESCO A.C.R.A.F. …, priority 2012, dated 2017)

Key:
Assay type in all cases: biochemical
[1] = biological target: PhKgamma 2 (h) (Homo sapiens (Human), UniProt P15735); assay: Kinase selectivity panel: PhKgamma 2 (h); details: 10 μM in duplicate, read-out: % inhibition of control values
Experimental: (§1) (a) Compounds 1 and 2 were tested against a panel of 60 kinases in order to assess their selectivity. The assays were chosen taking into consideration the diversity of assay families.
(§2) Tested kinases were representative of following kinase sub-families: • protein-serine/threonine kinases; • protein-tyrosine kinases; • other kinases; and • atypical kinases.
(§3) Human recombinant kinases were incubated in the presence of specific peptide substrates plus ATP for different times (10, 15, 30, 60 or 90 minutes) at 22° C. Phosphorylated substrate was detected by LANCE or HTRF technology (CISBIO, MA, USA). The compounds were tested at 10 μM in duplicate.
(§4) The results are expressed as a percentage of inhibition of control specific activity obtained in the presence of the test compounds and are reported in the following Table 5.
(§5) (b) Compounds 3, 8, 29 and 31 were tested against the same panel of 60 kinases under the same conditions described above for compounds 1 and 2.
(§6) The results are expressed as a percent of inhibition of control specific activity obtained in the presence of the test compounds and are reported in the following Table 6.

[2] = biological target: PCTAIRE1 kinase (h) (Homo sapiens (Human), UniProt Q00536); assay: Kinase selectivity panel: PCTAIRE1 kinase (h); details: 10 μM in duplicate, read-out: % inhibition of control values
Experimental: as §1, §2, §3, §4, §5, §6

[3] = biological target: CK1alpha (h) (Homo sapiens (Human), UniProt P48729); assay: Kinase selectivity panel: CK1alpha (h); details: 10 μM in duplicate, read-out: % inhibition of control values
Experimental: as §1, §2, §3, §4, §5, §6

[4] = biological target: CHK1 (h) (Homo sapiens (Human), UniProt O14757); assay: Kinase selectivity panel: CHK1 (h); details: 10 μM in duplicate, read-out: % inhibition of control values
Experimental: as §1, §2, §3, §4, §5, §6

[5] = biological target: Src kinase (h) (Homo sapiens (Human), UniProt P12931); assay: Kinase selectivity panel: Src kinase (h); details: 10 μM in duplicate, read-out: % inhibition of control values
Experimental: as §1, §2, §3, §4, §5, §6

[6] = biological target: c-Met kinase (h) (Homo sapiens (Human), UniProt P08581); assay: Kinase selectivity panel: c-Met kinase (h); details: 10 μM in duplicate, read-out: % inhibition of control values
Experimental: as §1, §2, §3, §4, §5, §6

[7] = biological target: DCAMKL1 (h) (Homo sapiens (Human), UniProt O15075); assay: Kinase selectivity panel: DCAMKL1 (h); details: 10 μM in duplicate, read-out: % inhibition of control values
Experimental: as §1, §2, §3, §4, §5, §6

[8] = biological target: NEK7 (h) (Homo sapiens (Human), UniProt Q8TDX7); assay: Kinase selectivity panel: NEK7 (h); details: 10 μM in duplicate, read-out: % inhibition of control values
Experimental: as §1, §2, §3, §4, §5, §6

[9] = biological target: EphA4 kinase (h) (Homo sapiens (Human), UniProt P54764); assay: Kinase selectivity panel: EphA4 kinase (h); details: 10 μM in duplicate, read-out: % inhibition of control values
Experimental: as §1, §2, §3, §4, §5, §6

[10] = biological target: MAPKAPK2 (h) (Homo sapiens (Human), UniProt P49137); assay: Kinase selectivity panel: MAPKAPK2 (h); details: 10 μM in duplicate, read-out: % inhibition of control values
Experimental: as §1, §2, §3, §4, §5, §6

[11] = biological target: GSK3beta (h) (Homo sapiens (Human), UniProt P49841); assay: Kinase selectivity panel: GSK3beta (h); details: GSK3beta (h); 10 μM in duplicate; read-out: % inhibition of control values
Experimental: as §1, §2, §3, §4, §6

[12] = biological target: p38delta kinase (h) (Homo sapiens (Human), UniProt O15264); assay: Kinase selectivity panel: p38delta kinase (h); details: 10 μM in duplicate, read-out: % inhibition of control values
Experimental: as §1, §2, §3, §4, §5, §6

[13] = biological target: Fyn kinase (h) (Homo sapiens (Human), UniProt P06241); assay: Kinase selectivity panel: Fyn kinase (h); details: 10 μM in duplicate, read-out: % inhibition of control values
Experimental: as §1, §2, §3, §4, §5, §6

[14] = biological target: human GSK-3β (Homo sapiens (Human), UniProt P49841); assay: Activity on human GSK-3β, LANCE substrate phosphorylation assay; details: for inhibition at 10 µM: in duplicate, first screening assay; for IC50: compounds 1 to 15, LANCE assay, five concentrations 100 μM to 10 nM
Experimental: Activity on human GSK-3β was assessed using the following methods (according to Meijer et al., Chem. Biol., 2003-10:1255-1266).
In a first screening assay, compounds were tested in duplicate at a concentration of 10 μM.
Human recombinant enzyme GSK-3β was incubated for 90 minutes at 22° C. in the presence of compounds or vehicle in a reaction buffer containing ATP plus 100 nM unphosphorylated specific substrate peptide (Ulight-[…] K-amide). Substrate phosphorylation was measured by LANCE technology (PerkinElmer, Conn., USA).
In a second assay, the same compounds were assayed at five concentrations ranging from 100 μM to 10 nM with ten-fold dilutions in duplicate.
The IC50 values (concentration causing a half maximal inhibition of control specific activity), reported in table 4, were determined by non-linear regression analysis of the inhibition curves generated with mean replicate values using Hill equation curve fitting.

[15] = biological target: JAK1 (h) (Homo sapiens (Human), UniProt P23458); assay: Kinase selectivity panel: JAK1 (h); details: 10 μM in duplicate, read-out: % inhibition of control values
Experimental: as §1, §2, §3, §4, §5, §6

[16] = biological target: PKCbeta 1 (h) (Homo sapiens (Human), UniProt P05771); assay: Kinase selectivity panel: PKCbeta 1 (h); details: 10 μM in duplicate, read-out: % inhibition of control values
Experimental: as §1, §2, §3, §4, §5, §6

[17] = biological target: IKKepsilon (h) (IKBKE) (Homo sapiens (Human), UniProt Q14164); assay: Kinase selectivity panel: IKKepsilon (h) (IKBKE); details: 10 μM in duplicate, read-out: % inhibition of control values
Experimental: as §1, §2, §3, §4, §5, §6

[18] = biological target: RSK2 (h) (Homo sapiens (Human), UniProt P51812); assay: Kinase selectivity panel: RSK2 (h); details: 10 μM in duplicate, read-out: % inhibition of control values
Experimental: as §1, §2, §3, §4, §5, §6

[19] = biological target: Pim2 kinase (h) (Homo sapiens (Human), UniProt Q9P1W9); assay: Kinase selectivity panel: Pim2 kinase (h); details: 10 μM in duplicate, read-out: % inhibition of control values
Experimental: as §1, §2, §3, §4, §5, §6

[20] = biological target: MYT1 kinase (h) (Homo sapiens (Human), UniProt Q99640); assay: Kinase selectivity panel: MYT1 kinase (h); details: 10 μM in duplicate, read-out: % inhibition of control values
Experimental: as §1, §2, §3, §4, §5, §6

[21] = biological target: DLK1 (h) (MAP3K12) (Homo sapiens (Human), UniProt Q12852); assay: Kinase selectivity panel: DLK1 (h) (MAP3K12); details: 10 μM in duplicate, read-out: % inhibition of control values
Experimental: as §1, §2, §3, §4, §5, §6

[22] = biological target: TAOK2 (TAO1) (h) (Homo sapiens (Human), UniProt Q9UL54); assay: Kinase selectivity panel: TAOK2 (TAO1) (h); details: 10 μM in duplicate, read-out: % inhibition of control values
Experimental: as §1, §2, §3, §4, §5, §6

[23] = biological target: CDK5/p35 (h) (Homo sapiens (Human), UniProt Q00535); assay: Kinase selectivity panel: CDK5/p35 (h); details: 10 μM in duplicate, read-out: % inhibition of control values
Experimental: as §1, §2, §3, §4, §5, §6

[24] = biological target: EphB2 kinase (h) (Homo sapiens (Human), UniProt P29323); assay: Kinase selectivity panel: EphB2 kinase (h); details: 10 μM in duplicate, read-out: % inhibition of control values
Experimental: as §1, §2, §3, §4, §5, §6

[25] = biological target: ERK1 (h) (Homo sapiens (Human), UniProt P27361); assay: Kinase selectivity panel: ERK1 (h); details: 10 μM in duplicate, read-out: % inhibition of control values
Experimental: as §1, §2, §3, §4, §5, §6

[26] = biological target: FGFR4 kinase (h) (Homo sapiens (Human), UniProt P22455); assay: Kinase selectivity panel: FGFR4 kinase (h); details: 10 μM in duplicate, read-out: % inhibition of control values
Experimental: as §1, §2, §3, §4, §5, §6

[27] = biological target: IGF1R kinase (h) (Homo sapiens (Human), UniProt P08069); assay: Kinase selectivity panel: IGF1R kinase (h); details: 10 μM in duplicate, read-out: % inhibition of control values
Experimental: as §1, §2, §3, §4, §5, §6

[28] = biological target: ERK2 (h) (P42mapk) (Homo sapiens (Human), UniProt P28482); assay: Kinase selectivity panel: ERK2 (h) (P42mapk); details: 10 μM in duplicate, read-out: % inhibition of control values
Experimental: as §1, §2, §3, §4, §5, §6

Sequence of IKKepsilon (h) (IKBKE) (Q14164 whole entry): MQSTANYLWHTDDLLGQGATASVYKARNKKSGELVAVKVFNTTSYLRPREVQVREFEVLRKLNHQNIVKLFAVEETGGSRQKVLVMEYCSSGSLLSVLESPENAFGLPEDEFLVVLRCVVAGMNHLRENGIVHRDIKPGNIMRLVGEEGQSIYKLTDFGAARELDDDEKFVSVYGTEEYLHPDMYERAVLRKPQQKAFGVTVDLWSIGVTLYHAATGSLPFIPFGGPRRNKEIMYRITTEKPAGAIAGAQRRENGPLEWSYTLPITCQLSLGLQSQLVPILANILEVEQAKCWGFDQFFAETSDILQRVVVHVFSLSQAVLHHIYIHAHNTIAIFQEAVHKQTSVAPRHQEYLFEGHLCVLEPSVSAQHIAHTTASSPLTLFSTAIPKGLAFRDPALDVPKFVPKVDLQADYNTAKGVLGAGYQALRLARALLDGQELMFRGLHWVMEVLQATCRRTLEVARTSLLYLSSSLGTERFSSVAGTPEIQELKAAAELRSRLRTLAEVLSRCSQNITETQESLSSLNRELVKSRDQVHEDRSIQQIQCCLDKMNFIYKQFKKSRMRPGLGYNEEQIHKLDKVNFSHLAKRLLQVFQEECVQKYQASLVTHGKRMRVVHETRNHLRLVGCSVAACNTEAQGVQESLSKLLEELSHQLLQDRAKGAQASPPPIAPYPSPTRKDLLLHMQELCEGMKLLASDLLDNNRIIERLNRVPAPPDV
Sequence of CK1alpha (h) (P48729 whole entry): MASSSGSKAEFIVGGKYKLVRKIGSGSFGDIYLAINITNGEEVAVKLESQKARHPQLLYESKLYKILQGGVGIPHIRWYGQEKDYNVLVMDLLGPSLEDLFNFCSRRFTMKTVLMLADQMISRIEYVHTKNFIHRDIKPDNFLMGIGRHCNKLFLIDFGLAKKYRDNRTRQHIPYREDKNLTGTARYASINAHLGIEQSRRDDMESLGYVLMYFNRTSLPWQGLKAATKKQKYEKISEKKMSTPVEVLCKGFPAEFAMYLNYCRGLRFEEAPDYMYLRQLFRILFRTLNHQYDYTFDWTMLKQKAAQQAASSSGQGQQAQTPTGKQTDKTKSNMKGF
Sequence of NEK7 (h) (Q8TDX7 whole entry): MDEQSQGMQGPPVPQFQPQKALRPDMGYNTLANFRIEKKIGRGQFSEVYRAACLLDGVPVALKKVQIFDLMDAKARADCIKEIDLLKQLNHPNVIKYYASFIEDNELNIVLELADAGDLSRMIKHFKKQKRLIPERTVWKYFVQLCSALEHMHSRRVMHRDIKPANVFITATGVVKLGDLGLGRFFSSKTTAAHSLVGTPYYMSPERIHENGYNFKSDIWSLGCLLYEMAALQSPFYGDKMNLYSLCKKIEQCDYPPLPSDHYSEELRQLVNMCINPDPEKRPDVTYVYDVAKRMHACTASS
Sequence of CDK5/p35 (h) (Q00535 whole entry): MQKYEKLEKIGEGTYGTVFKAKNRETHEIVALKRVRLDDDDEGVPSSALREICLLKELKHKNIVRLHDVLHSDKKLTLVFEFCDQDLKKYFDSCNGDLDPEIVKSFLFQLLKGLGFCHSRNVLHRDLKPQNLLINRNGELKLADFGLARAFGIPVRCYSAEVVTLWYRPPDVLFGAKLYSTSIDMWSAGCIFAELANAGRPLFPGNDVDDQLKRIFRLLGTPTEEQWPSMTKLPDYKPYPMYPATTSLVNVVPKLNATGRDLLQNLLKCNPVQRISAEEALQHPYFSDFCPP
Sequence of CDK5/p35 (h) (Q15078 whole entry partner): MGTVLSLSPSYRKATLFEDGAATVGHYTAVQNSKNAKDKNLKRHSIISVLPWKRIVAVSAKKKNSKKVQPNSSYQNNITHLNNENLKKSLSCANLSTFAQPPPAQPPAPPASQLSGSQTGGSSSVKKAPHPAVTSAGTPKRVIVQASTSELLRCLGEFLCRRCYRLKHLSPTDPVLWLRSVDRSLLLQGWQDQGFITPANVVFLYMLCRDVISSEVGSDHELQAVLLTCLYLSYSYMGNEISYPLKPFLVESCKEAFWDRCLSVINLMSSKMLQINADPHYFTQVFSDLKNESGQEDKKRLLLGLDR
Sequence of Pim2 kinase (h) (Q9P1W9 whole entry): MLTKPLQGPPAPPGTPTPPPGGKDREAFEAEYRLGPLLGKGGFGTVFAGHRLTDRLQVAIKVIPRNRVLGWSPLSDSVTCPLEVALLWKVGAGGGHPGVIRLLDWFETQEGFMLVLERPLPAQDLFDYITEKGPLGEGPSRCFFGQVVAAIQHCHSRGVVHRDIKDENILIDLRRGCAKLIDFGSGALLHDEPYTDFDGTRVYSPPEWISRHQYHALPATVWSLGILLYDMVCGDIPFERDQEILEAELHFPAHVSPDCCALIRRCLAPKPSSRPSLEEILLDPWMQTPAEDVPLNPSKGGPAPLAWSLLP
Sequence of FGFR4 kinase (h) (P22455 22-802): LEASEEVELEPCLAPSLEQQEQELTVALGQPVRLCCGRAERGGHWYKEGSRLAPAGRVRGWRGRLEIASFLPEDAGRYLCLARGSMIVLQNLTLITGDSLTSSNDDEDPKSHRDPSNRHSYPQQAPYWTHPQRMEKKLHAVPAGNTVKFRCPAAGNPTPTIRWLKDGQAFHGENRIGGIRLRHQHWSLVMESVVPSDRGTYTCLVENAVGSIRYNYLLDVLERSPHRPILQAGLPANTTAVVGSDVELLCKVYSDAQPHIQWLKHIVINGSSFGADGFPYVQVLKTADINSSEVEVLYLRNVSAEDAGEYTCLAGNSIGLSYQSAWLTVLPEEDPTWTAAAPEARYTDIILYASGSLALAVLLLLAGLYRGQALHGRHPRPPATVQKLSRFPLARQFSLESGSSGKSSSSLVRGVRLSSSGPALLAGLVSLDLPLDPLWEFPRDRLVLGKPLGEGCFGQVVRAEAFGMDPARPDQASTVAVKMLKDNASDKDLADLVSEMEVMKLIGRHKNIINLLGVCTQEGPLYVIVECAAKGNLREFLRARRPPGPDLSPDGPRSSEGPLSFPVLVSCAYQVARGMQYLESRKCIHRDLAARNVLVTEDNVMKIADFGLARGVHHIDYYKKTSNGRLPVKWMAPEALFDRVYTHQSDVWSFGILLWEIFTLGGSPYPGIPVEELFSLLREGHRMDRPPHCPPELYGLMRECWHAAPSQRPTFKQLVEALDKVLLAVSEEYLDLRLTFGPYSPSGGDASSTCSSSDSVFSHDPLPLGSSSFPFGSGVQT
Sequence of p38delta kinase (h) (O15264 whole entry): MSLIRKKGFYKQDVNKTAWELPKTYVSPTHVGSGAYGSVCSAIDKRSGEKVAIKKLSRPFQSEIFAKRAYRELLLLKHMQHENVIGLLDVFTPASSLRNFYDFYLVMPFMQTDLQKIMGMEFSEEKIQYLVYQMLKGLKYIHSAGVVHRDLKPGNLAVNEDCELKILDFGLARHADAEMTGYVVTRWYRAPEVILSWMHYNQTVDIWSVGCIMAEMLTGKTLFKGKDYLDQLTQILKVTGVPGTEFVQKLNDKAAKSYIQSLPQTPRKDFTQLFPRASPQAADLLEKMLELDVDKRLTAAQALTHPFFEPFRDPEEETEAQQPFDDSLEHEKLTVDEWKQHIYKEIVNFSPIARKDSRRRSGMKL
Sequence of IGF1R kinase (h) (P08069 31-1367): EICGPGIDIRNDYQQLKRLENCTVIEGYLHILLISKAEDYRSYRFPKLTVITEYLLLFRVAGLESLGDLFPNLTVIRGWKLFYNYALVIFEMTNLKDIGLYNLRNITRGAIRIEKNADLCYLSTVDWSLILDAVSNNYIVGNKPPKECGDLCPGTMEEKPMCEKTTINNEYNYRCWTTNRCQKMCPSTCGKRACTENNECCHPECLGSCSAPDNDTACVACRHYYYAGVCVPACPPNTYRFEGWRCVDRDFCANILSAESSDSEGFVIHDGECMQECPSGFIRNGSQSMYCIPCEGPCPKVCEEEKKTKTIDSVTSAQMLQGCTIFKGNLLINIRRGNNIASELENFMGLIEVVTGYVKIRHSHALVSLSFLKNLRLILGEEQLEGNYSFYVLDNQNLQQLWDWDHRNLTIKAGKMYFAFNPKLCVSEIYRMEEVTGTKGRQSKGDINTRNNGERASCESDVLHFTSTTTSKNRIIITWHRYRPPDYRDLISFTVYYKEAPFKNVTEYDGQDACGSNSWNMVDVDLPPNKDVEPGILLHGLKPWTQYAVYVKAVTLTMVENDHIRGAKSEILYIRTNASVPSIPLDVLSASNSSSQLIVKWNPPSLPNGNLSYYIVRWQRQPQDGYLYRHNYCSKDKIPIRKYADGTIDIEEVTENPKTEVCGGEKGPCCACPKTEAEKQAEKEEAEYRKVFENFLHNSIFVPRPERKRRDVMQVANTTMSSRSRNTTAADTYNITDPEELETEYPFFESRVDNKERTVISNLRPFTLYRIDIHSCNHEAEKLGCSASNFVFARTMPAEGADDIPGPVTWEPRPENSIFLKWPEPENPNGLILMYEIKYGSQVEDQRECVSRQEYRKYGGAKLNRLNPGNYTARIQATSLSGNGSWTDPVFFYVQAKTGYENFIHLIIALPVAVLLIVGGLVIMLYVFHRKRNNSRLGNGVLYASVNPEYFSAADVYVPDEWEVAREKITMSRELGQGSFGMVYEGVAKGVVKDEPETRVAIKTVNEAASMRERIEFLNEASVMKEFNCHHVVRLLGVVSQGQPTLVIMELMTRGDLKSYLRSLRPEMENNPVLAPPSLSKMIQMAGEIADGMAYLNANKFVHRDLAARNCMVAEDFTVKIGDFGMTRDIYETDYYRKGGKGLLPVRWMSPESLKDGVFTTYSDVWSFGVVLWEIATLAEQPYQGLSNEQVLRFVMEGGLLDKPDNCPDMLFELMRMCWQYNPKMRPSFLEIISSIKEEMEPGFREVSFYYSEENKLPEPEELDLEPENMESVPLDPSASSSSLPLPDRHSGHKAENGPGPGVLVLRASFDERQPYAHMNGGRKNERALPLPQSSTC

Row | Structure (SMILES) | inhibition at 10 µM [1] [%] | inhibition at 10 µM [2] [%] | inhibition at 10 µM [3] [%] | inhibition at 10 µM [4] [%] | inhibition at 10 µM [5] [%] | inhibition at 10 µM [6] [%] | inhibition at 10 µM [7] [%] | inhibition at 10 µM [8] [%] | inhibition at 10 µM [9] [%] | inhibition at 10 µM [10] [%] | inhibition at 10 µM [12] [%] | inhibition at 10 µM [13] [%] | inhibition at 10 µM [15] [%] | inhibition at 10 µM [16] [%] | inhibition at 10 µM [17] [%] | inhibition at 10 µM [18] [%] | inhibition at 10 µM [19] [%] | inhibition at 10 µM [20] [%] | inhibition at 10 µM [21] [%] | inhibition at 10 µM [22] [%] | further results
1 | COc1ccc2[nH]nc(C(=O)NCC3CCN(CCC(=O)O)CC3)c2c1 [Compound 3] | 1 | 0 | 0 | 0 | 0 | 0 | 0 | 2 | 0 | 0 | 0 | 0 | 4 | 0 | 0 | 4 | 0 | 2 | 0 | 0 | inhibition at 10 µM [11]: 89%; inhibition at 10 µM [14]: 94%; inhibition at 10 µM [23]: 9%; inhibition at 10 µM [24]: 0%; inhibition at 10 µM [25]: 19%; inhibition at 10 µM [26]: 0%; inhibition at 10 µM [27]: 0%; inhibition at 10 µM [28]: 34%
2 | COCCN1CCC(CNC(=O)c2n[nH]c3ccc(OC)cc23)CC1 [Compound 2, 5-methoxy-N-{[1-(2-methoxyethyl)-piperidin-4-yl]methyl}-1H-indazole-3-carboxamide] | 1 | 71 | 12 | 8 | 6 | 0 | 3 | 0 | 0 | 0 | 0 | 3 | 0 | 1 | 0 | 1 | 4 | 1 | 0 | 26 | inhibition at 10 µM [11]: 90%; inhibition at 10 µM [14]: 85%; IC50 [14]: 870 nM; inhibition at 10 µM [23]: 13%; inhibition at 10 µM [24]: 7%; inhibition at 10 µM [25]: 15%; inhibition at 10 µM [26]: 0%; inhibition at 10 µM [27]: 0%; inhibition at 10 µM [28]: 46%
3 | COc1ccc2[nH]nc(C(=O)NCC3CCN(CC(=O)O)CC3)c2c1 [Compound 1, [4-({[(5-methoxy-1H-indazol-3-yl)-carbonyl]amino}methyl)piperidin-1-yl]acetic acid] | 30 | 22 | 0 | 5 | 1 | 3 | 0 | 0 | 0 | 0 | 0 | 0 | 0 | 0 | 0 | 0 | 3 | 0 | 0 | 3 | inhibition at 10 µM [11]: 94%; inhibition at 10 µM [14]: 92%; IC50 [14]: 670 nM; inhibition at 10 µM [23]: 19%; inhibition at 10 µM [24]: 4%; inhibition at 10 µM [25]: 20%; inhibition at 10 µM [26]: 0%; inhibition at 10 µM [27]: 0%; inhibition at 10 µM [28]: 58%
4 | COCCN1CCC(CNC(=O)c2n[nH]c3ccc(-c4cccc(F)c4F)cc23)CC1 [Compound 8, 5-(2,3-difluorophenyl)-N-{[1-(2-methoxyethyl)piperidin-4-yl]methyl}-1H-indazole-3-carboxamide] | 0 | 84 | 6 | 0 | 0 | 7 | 0 | 0 | 0 | 17 | 18 | 0 | 7 | 28 | 3 | 4 | 0 | 20 | 58 | 79 | inhibition at 10 µM [23]: 77%; inhibition at 10 µM [24]: 2%; inhibition at 10 µM [25]: 66%; inhibition at 10 µM [26]: 2%; inhibition at 10 µM [27]: 3%; inhibition at 10 µM [28]: 74%
